The values that follow are results of earlier work, collected in patent US20070071689A1, “Advantageous combination for inhalation of nacystelyn and bronchodilators” (GALEPHAR M/F, priority 2003, published 2007).

The conditions of data set [1]: administration via the inhalation route.
The conditions of data set [2]: in comparison to ACC.
For a further data set, the system named is cystic fibrosis patients. To be noted: in comparison to placebo.

Take `CC(=O)N[C@@H](CS)C(=O)O` [ACC, acetylcysteine]: the “bronchospasms (side effects)” value in data set [1] was “can be responsible for reflex bronchospasms”.

As to L-Lysine N-Acetylcysteinate [NAL], in data set [2], the active dose result is “active at lower doses than ACC”; the “mucolytic and antioxidant activity” value was “superior to the activity of ACC”. Also, the “number and severity of lung exacerbations” value in the data set on cystic fibrosis patients was “significantly decrease the number and severity of lung exacerbations”.
